Reference: paper PMC11983664, “Preclinical Pharmacokinetic Assessment of a Promising Vasorelaxant, Analgesic, and Anti‐Inflammatory Prototype 5‐[1‐(4‐Fluorophenyl)‐1H‐pyrazol‐4‐yl]‐2H‐tetrazole (LQFM020) Through Selective Bioanalytical HPLC‐PDA‐Based Method” (Biomedical Chromatography, 2025)
“And” between values parts separate entries of the source, which are not always exact repeats. Equal entries are not always repeated. “Also recorded” adds a separate entry of the source. Where two headings read alike, the source gives them in different places.

How the values were obtained:
CYP3A4 = CYP3A4 (Homo sapiens, UniProt P08684); test: CYP3A enzyme inhibition in vitro analysis (midazolam biotransformation, HPLC-PDA); type: in vitro ADME; details: LQFM020 100 μg/mL, midazolam 10 μg/mL, 37°C, 2 h
CYP3A4, sequence (P08684 whole entry): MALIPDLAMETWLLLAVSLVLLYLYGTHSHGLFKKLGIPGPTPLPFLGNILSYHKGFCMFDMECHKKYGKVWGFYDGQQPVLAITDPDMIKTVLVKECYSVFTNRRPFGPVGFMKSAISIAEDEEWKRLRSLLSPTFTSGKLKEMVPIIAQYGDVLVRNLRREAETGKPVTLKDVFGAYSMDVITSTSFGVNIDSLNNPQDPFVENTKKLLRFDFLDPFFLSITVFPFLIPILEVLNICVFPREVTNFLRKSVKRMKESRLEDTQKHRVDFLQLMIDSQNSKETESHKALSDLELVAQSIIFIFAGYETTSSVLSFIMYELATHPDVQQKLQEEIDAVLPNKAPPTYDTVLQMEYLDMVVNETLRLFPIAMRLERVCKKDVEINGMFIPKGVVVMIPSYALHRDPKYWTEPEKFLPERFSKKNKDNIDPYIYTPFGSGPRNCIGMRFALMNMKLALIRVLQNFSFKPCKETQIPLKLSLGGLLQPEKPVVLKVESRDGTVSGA
Procedure: LQFM020 was evaluated for its ability to inhibit CYP3A4—the main subfamily responsible for drug metabolism in humans. […] Cold methanol was added after stirring these mixtures at 37°C for 2 h to stop the reaction and then centrifuged at 13,000 g for 10 min. The supernatant was filtered in Millex 0.22 μm pore and injected into HPLC system for the quantitation of midazolam. All samples were prepared in quintuplicate and analyzed by a HPLC‐PDA‐based method rigorously validated in our laboratory routine for the midazolam metabolites' quantification 1‐hydroxydazolam (1‐HMDZ) and 4‐hydroxydazolam (4‐HMDZ) (Ramirez De Oliveira et al. [2015]).

[1] = Pharmacokinetic study after oral administration in rats; type: in vivo, male Wistar rats
Procedure: (§1) Male Wistar rats (250–300 g) obtained from Central Vivarium of Federal University of Goiás (UFG) were housed under a 12‐h light/dark cycle (22°C–23°C), with free access to food and water. This in vivo pharmacokinetic study was conducted in accordance with Ethical Principles in Animal Research, adopted by International Guiding Principles for Biomedical Research Involving Animals and approved by the Institutional Ethics in Research Committee at the UFG (Protocol CEUA/UFG 085/17). All efforts were made to minimize animal suffering as preconized by regulatory institutions.
(§2) LQFM020 was prepared in physiological solution containing DMSO 1% at dose of 10 mg/kg for intravenous administration (i.v., bolus), and then, blood samples (0.5 mL) were collected at 0, 0.5, 1, 2, 3, 4, 5, 6, and 24 h in heparinized microtubes. Oral administration (p.o.) was performed at LQFM020 dose of 9, 18, or 36 mg/kg prepared in physiological solution with DMSO 1%. Blood samples (0.5 mL) were collected at 0, 0.5, 1, 2, 3, 4, 5, 6, and 24 h in heparinized microtubes. Plasma samples were obtained by blood centrifugation (3000 g, 10 min) and were stored at −20°C.
(§3) LQFM020 pharmacokinetic parameters were obtained by non‐compartmental model, including peak plasma concentration (Cmax) and time to reach it (Tmax), elimination half‐life (t1/2), elimination constant (Kel), total area under the curve of plasma concentration versus time (AUCT), apparent distribution volume (Vd), clearance (Cl), and mean residence time (MRT). These pharmacokinetic parameters were calculated by Phoenix Connect 1.3.1 software (Certara, Princeton, NJ, USA).
LQFM020 absolute oral bioavailability F(%) was obtained applying AUCT and dose (D) from p.o. and i.v. administration, according to the equation: F%=AUCp.o./AUCi.v.×Di.v./Dp.o.×100

[2] = mouse, in vivo, po; cited from earlier work
3T3 cell = system: 3T3 cell; design: method as in de Oliveira et al. [2017]; details: 3T3 cells; ref de Oliveira et al. [2017]; cited from earlier work
[3] = Stability of LQFM020 in rat plasma (short-term, freeze-thaw, long-term); type: in vitro ADME; details: n = 3
Procedure: Bioanalytical method validation was conducted in accordance with the guideline of Brazilian Health Surveillance Agency (ANVISA) RDC 27/2012, analyzing several parameters, such as matrix effect, recovery, selectivity, linearity, precision and accuracy, and stabilities (short‐term, long‐term, and freezing/thawing cycles) (ANVISA [2012]).
Indeed, rat plasma concentrations (n = 3) of LQC and HQC presented a nonsignificant degradation below ±15% (RE), ranging from 89.2 ± 2.2% (short term) to 107.5 ± 1.8% (long term) at the end of storage condition times, as shown in Table 2.

[4] = Pharmacokinetic study after intravenous bolus administration in rats; type: in vivo, male Wistar rats; details: i.v. 10 mg/kg, male adult rats; for AUC(0-t) / half-life: male, Wistar, rat, plasma, iv
Procedure: as §1, §2, §3

[5] = design: method as in earlier work; details: oral; ref Davies et al. [2000]; Dhondt et al. [2017]; Gong et al. [2012]; cited from earlier work
[6] = Wistar, rat, plasma, oral 9 mg/kg, male adult rats, mean ± SEM, n = 3
[7] = Wistar, rat, plasma, oral 18 mg/kg, male adult rats, mean ± SEM, n = 3
[8] = Wistar, rat, plasma, oral 36 mg/kg, male adult rats, mean ± SEM, n = 3
[9] = individual animals 1-3, 10 mg/kg
[10] = 10 mg/kg, individual animals 1-3

In the case of `Fc1ccc(-n2cc(-c3nn[nH]n3)cn2)cc1` [LQFM020, 5‐[1‐(4‐fluorophenyl)‐1H‐pyrazol‐4‐yl]‐2H‐tetrazole], the “inhibition of CYP3A4 (peak areas of midazolam metabolites 1-HMDZ and 4-HMDZ vs negative control)” value (CYP3A4) is reported as “no significant effect; also recorded: absence of inhibition; also recorded: does not change the biotransformation”, the AUC(0-t) [1, 6] is reported as 69.8 ± 5.33 µg·h/mL and the Cmax [1, 6] is reported as 16600 ± 4410 ng/mL. It also gave a Tmax [1, 6] of 1.66 ± 0.66 h, a Vd/F [1, 6] of 0.86 ± 0.4 L/kg and a half-life ([1]; Wistar, rat, plasma, oral 9 mg/kg, male adult rats, mean ± SEM, n = 3, read-out: t1/2 (converted)) of 5.82 ± 2.35 h. The AUC(0-t) [1, 7] was 110 ± 17.1 µg·h/mL, the Cmax [1, 7] was 26600 ± 2030 ng/mL and the Tmax [1, 7] was 0.83 ± 0.17 h. The Vd/F [1, 7] was 1.44 ± 0.36 L/kg, the half-life ([1]; Wistar, rat, plasma, oral 18 mg/kg, male adult rats, mean ± SEM, n = 3, read-out: t1/2 (converted)) was 5.85 ± 0.96 h and the AUC(0-t) [1, 8] was 287 ± 82.4 µg·h/mL. The Cmax [1, 8] was 55200 ± 21100 ng/mL, the Tmax [1, 8] was 1.67 ± 0.66 h and the Vd/F [1, 8] was 1.16 ± 0.26 L/kg. It also gave a half-life ([1]; Wistar, rat, plasma, oral 36 mg/kg, male adult rats, mean ± SEM, n = 3, read-out: t1/2 (converted)) of 6.74 ± 2.47 h, a bioavailability ([1]; male, Wistar, plasma, oral, rat, from AUC and dose of p.o. and i.v. (10 mg/kg) administration, read-out: absolute oral bioavailability F(%)) of 46% and a half-life ([1]; male, Wistar, rat, plasma, oral administration, rats, overall, read-out: elimination half-time (t1/2) (converted)) of about 6 h. It also gave a ClT ([1]; oral 9 mg/kg, male adult rats, mean ± SEM, n = 3) of 158 ± 14 mL/day/kg, a ClT ([1]; oral 18 mg/kg, male adult rats, mean ± SEM, n = 3) of 230 ± 29 mL/day/kg and a ClT ([1]; oral 36 mg/kg, male adult rats, mean ± SEM, n = 3) of 216 ± 86 mL/day/kg. The “orally well tolerated dose” value [2] was at most 2000 mg/kg, the “concentrations reducing 3T3 cell viability” value (3T3 cell) was 350 to 1400 µM and the “Stability, Accuracy (RE) (Mean ± CV%)” value ([3]; freeze–thaw (3 cycles), nominal 0.75 μg/mL) was 96.4 ± 2.6%. The “Stability, Accuracy (RE) (Mean ± CV%)” value ([3]; freeze–thaw (3 cycles), nominal 15 μg/mL) was 96.0 ± 5.3%, the “Stability, Accuracy (RE) (Mean ± CV%)” value ([3]; long duration (30 days, −20°C), nominal 0.75 μg/mL) was 102.1 ± 6.5% and the “Stability, Accuracy (RE) (Mean ± CV%)” value ([3]; long duration (30 days, −20°C), nominal 15 μg/mL) was 107.5 ± 1.8%. For the same molecule, the “Stability, Accuracy (RE) (Mean ± CV%)” value ([3]; short duration (RT, 4 h), nominal 0.75 μg/mL) was 89.2 ± 2.2%, the “Stability, Accuracy (RE) (Mean ± CV%)” value ([3]; short duration (RT, 4 h), nominal 15 μg/mL) was 94.5 ± 5.2% and the AUCT [4, 9] was 1064.89 µg·h/mL and 1314.07 µg·h/mL. For the same molecule, the ClT/F [4, 9] was 12 mL/day/kg and 13 mL/day/kg and 10 mL/day/kg, the Vd/F [4, 9] was 0.032 L/kg and 0.041 L/kg and 0.036 L/kg and the t1/2 [4, 9] was 3.06 h and 3.26 h. The ClT/F ([4]; mean ± SEM, n = 3) was 12 ± 0 mL/day/kg, the Vd/F ([4]; mean ± SEM, n = 3) was 0.03 ± 0.00 L/kg and the t1/2 ([4]; mean ± SEM, n = 3, 10 mg/kg) was 3.05 ± 0.12 h. It also gave an AUC(0-t) [4, 10] of 1230 µg·h/mL, a half-life [4, 10] of 2.83 h and an AUC(0-t) ([4]; 10 mg/kg, mean ± SEM, n = 3) of 1220 ± 77.9 µg·h/mL. For the same molecule, the half-life ([4]; 10 mg/kg, mean ± SEM, n = 3) was about 3 h.
For `Cc1ccc(-c2cc(C(F)(F)F)nn2-c2ccc(S(N)(=O)=O)cc2)cc1` [celecoxib], the Tmax [5] is given as 2 to 4 h.
